Experimental data published in patent publication US10899758B2, “Inhibitors of the menin-MLL interaction” (Vitae Pharmaceuticals, LLC, priority 2016, dated 2021).
Read-outs that look alike come from different tables or passages of the source.

Columns and labels:
[1] = system: human acute monocytic leukemia cell line MV-4-11; assay: Assay 2 (Cell Proliferation Assay), ATP quantitation (CellTiter-Glo); format: cell-based; settings: MV-4-11 cells, read-out: Assay 2 (EC50, inhibition of cell proliferation)
Procedure: Potencies of inhibitor compounds against cell proliferation was assessed against the human acute monocytic leukemia cell line MV-4-11 (ATCC® CRL-9591™) based on ATP quantitation. MV-4-11 cells or toxicity control HL-60 cells (ATCC® CCL-240™) were incubated in 96-well tissue culture plates (1.67×10^4 cells in 200 μL culture media containing 10% FBS per well) with or without test compound for 72 h at 37° C., 5% CO2. After incubation, each well was mixed by pipetting and 95 μL from each well was transferred to a well in 96-well black OptiPlate® plates (PerkinElmer). An equal volume of CellTiter-Glo® Luminescent Cell Viability Assay reagent (Promega) was added to each well, followed by mixing for 5 min on an orbital plate shaker. Luminescence was measured on a Wallac EnVision 2104 Multilabel Reader (PerkinElmer) to quantitate ATP. Percent inhibition of cell proliferation by test compounds was calculated based on uninhibited cell growth (DMSO) versus cells treated with a potent menin inhibitor at a concentration yielding at least 100×LD50.

[2] = biological target: T1, menin/MLL binding (biotinylated wild-type or mutated menin and MLL-AF9 fusion protein) (Homo sapiens, UniProt O00255); assay: Assay 1 (Binding Assay): AlphaLISA menin/MLL binding; settings: 5 nM biotinylated menin, MLL-AF9-FLAG lysate
T1 construct: biotinylated (1) wild-type menin or (2) mutated menin (described in Nature (2012) Vol. 482, pp. 542-548); fused on or other part: Biotin attached chemically (Sulfo-NHS-Biotin); no fused second protein is printed for menin
T1 sequence (O00255 1-459 limits assumed): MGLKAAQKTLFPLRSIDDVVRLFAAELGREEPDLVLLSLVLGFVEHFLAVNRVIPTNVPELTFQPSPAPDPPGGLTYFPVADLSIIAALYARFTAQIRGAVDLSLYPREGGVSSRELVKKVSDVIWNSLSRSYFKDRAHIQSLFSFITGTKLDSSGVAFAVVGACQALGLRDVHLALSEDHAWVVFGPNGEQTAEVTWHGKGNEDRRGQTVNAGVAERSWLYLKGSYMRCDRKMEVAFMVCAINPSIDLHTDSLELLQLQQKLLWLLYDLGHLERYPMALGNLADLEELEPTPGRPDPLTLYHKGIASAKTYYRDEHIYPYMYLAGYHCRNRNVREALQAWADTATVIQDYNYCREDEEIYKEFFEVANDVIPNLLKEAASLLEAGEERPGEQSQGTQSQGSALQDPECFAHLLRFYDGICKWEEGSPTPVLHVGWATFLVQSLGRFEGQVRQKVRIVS
In short: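 Biotinylated E. coli-expressed menin (wild-type or mutant), 5 nM, incubated 30 min RT with compound and HEK293 lysate of MLL1-1,396–AF9-FLAG in pH 7.4 Tris buffer, 5% DMSO, 1 mM DTT. Anti-FLAG acceptor and streptavidin donor beads added, 60 min RT, AlphaLISA signal read. IC50 from four-parameter fit of % inhibition.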

Structure (SMILES) | EC50 ([1]; Homo sapiens, MV4-11, 72 h) [nM] | IC50 [2] [nM] | EC50 ([1]; 72 h) [nM]
CC(C)N(C)C(=O)c1cc(F)ccc1-n1cc(C2CCCN(C[C@H]3CC[C@H](NS(C)(=O)=O)CC3)CC2)c2ccncc21 (relative stereo) [Example 41, 5-fluoro-N-isopropyl-N-methyl-2-(3-(1-((trans-4-(methylsulfonamido)cyclohexyl)methyl)azepan-4-yl)-1H-pyrrolo[2,3-c]pyridin-1-yl)benzamide] | < 100 | < 100 | –
CC(C)N(C)C(=O)c1cc(F)ccc1-n1cc(C2CCC(N(C)C)CC2)c2ccncc21 (single isomer, unassigned) [Example 54, 2-(3-(4-(dimethylamino)cyclohexyl)-1H-pyrrolo[2,3-c]pyridin-1-yl)-5-fluoro-N-isopropyl-N-methylbenzamide] | ≥ 1000 | < 100 | –
CC(C)N(C(=O)c1cc(F)ccc1-n1cc(C2CCCN(C(=O)OC(C)(C)C)C2)c2ccncc21)C(C)C (centres unmarked) [Int. 10, tert-butyl 3-(1-(2-(diisopropylcarbamoyl)-4-fluorophenyl)-1H-pyrrolo[2,3-c]pyridin-3-yl)piperidine-1-carboxylate] | – | ≥ 1000 | –
CC(C)N(C)C(=O)c1cc(F)ccc1-n1cc(C2C[C@@H](C)N[C@@H](C)C2)c2ccncc21 (stereo partly drawn) [Int. 13, 2-(3-((2S,6R)-2,6-dimethylpiperidin-4-yl)-1H-pyrrolo[2,3-c]pyridin-1-yl)-5-fluoro-N-isopropyl-N-methylbenzamide] | – | 100 to 1000 | –
CC(C)N(C)C(=O)c1cc(F)ccc1-n1cc(C2CCC3(CC2)OCCO3)c2ccncc21 [Int. 17A, 2-(3-(1,4-dioxaspiro[4.5]decan-8-yl)-1H-pyrrolo[2,3-c]pyridin-1-yl)-5-fluoro-N-isopropyl-N-methylbenzamide] | – | ≥ 1000 | –
CC(C)N(C)C(=O)c1cc(F)ccc1-n1cc(-c2ccc3c(c2)CCNC3)c2ccncc21 [Int. 17C, 5-fluoro-N-isopropyl-N-methyl-2-(3-(1,2,3,4-tetrahydroisoquinolin-6-yl)-1H-pyrrolo[2,3-c]pyridin-1-yl)benzamide] | – | 100 to 1000 | –

More lines, now with the values ahead:

EC50 ([1]; Homo sapiens, MV4-11, 72 h) [nM] | IC50 [2] [nM] | EC50 ([1]; 72 h) [nM] | Structure (SMILES)
< 100 | < 100 | – | CC(C)N(C)C(=O)c1cc(F)ccc1-n1cc(C2CCCN(Cc3ccc4[nH]c(=O)[nH]c4c3)C2)c2ccncc21 (single isomer, unassigned) [Example 43A, 5-fluoro-N-isopropyl-N-methyl-2-(3-(1-((2-oxo-2,3-dihydro-1H-benzo[d]imidazol-5-yl)methyl)piperidin-3-yl)-1H-pyrrolo[2,3-c]pyridin-1-yl)benzamide]
< 100 | < 100 | – | CC(C)N(C)C(=O)c1cc(F)ccc1-n1cc([C@H]2CCCN(Cc3ccc4c(c3)[nH]c(=O)n4CCO)C2)c2ccncc21 (single isomer, unassigned) [Example 44A]
< 100 | < 100 | – | CC(C)N(C)C(=O)c1cc(F)ccc1-n1cc(C2CCCN(Cc3ccc4c(c3)[nH]c(=O)n4CCO)C2)c2ccncc21 (single isomer, unassigned) [Example 44B, 5-fluoro-2-(3-(1-((1-(2-hydroxyethyl)-2-oxo-2,3-dihydro-1H-benzo[d]imidazol-5-yl)methyl)piperidin-3-yl)-1H-pyrrolo[2,3-c]pyridin-1-yl)-N-isopropyl-N-methylbenzamide]
< 100 | < 100 | – | CCN(C(=O)c1cc(F)ccc1-n1cc(C2CCCN(Cc3ccc4[nH]c(=O)[nH]c4c3)C2)c2ccncc21)C(C)C (single isomer, unassigned) [Example 47A]
– | < 100 | < 100 | CCN(C(=O)c1cc(F)ccc1-n1cc(C2CCCN(Cc3ccc4[nH]c(=O)[nH]c4c3)C2)c2ccncc21)C(C)C (single isomer, unassigned) [Example 47B]
– | 100 to 1000 | ≥ 1000 | CC(C)N(C)C(=O)c1cc(F)ccc1-n1cc(C2CCC(N(C)C)CC2)c2ccncc21 (single isomer, unassigned) [Example 54A, 2-(3-(4-(dimethylamino)cyclohexyl)-1H-pyrrolo[2,3-c]pyridin-1-yl)-5-fluoro-N-isopropyl-N-methylbenzamide]
